Values of other authors as cited in patent publication EP2792015B1, “HIGH SPECIFIC-ENERGY LI/02-CO2 BATTERY” (Robert Bosch GmbH, priority 2011, dated 2013).
Values after ≈ are worked out from the molar mass of the structure shown. Read-outs that look alike come from different tables or passages of the source.

Settings: 1 atmosphere and 25°C

## O=C=O [CO2, carbon dioxide]
In H2O
  Solubility: 1450 µg/mL (≈ 32.9 mM)
In propylene carbonate
  Solubility: 6115 µg/mL (≈ 139 mM)

## O=O [O2, oxygen]
In H2O
  Solubility: 8.3 µg/mL (≈ 0.259 mM)
In propylene carbonate
  Solubility: 110 µg/mL (≈ 3.44 mM)
